Counter-ions that a name gives are not always drawn.
Columns and labels:
DU145 cells = assay: In vitro cell inhibition assay - DU145 cell proliferation (CellTiter-Glo); assay type: cell-based
In short: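 DU145 cells were seeded at 1×10^3 per well, exposed next day to an 8-point, 5-fold compound dilution series in RPMI-640 with 10% FBS, and incubated 6 days at 37° C. Viable cells were measured by CellTiter-Glo luminescence, and IC50 was fitted from inhibition rates relative to no-inhibitor and no-cell controls.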

LSD1 = LSD1 (Homo sapiens (Human), UniProt O60341); assay: In vitro enzyme inhibition assay - LSD1 (HTRF); assay type: biochemical
NCI-H526 cells = assay: In vitro cell inhibition assay - NCI-H526 cell proliferation (CellTiter-Glo); assay type: cell-based; details: H526 small cell lung cancer cell proliferation, 5 days
In short: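 NCI-H526 cells plated at 1×10^3 per well overnight, then treated with 8 concentrations (5-fold dilutions) in RPMI-640 with 10% FBS for 5 days at 37° C., 5% CO2. Viable cells quantified by CellTiter-Glo luminescence; IC50 fitted from inhibition rates relative to no-inhibitor and no-cell controls.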

NCI-H1417 cells = assay: In vitro cell inhibition assay - H1417 cell proliferation (CellTiter-Glo); assay type: cell-based
In short: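 Cells exposed to 8 compound concentrations (5-fold dilutions) in BEGM with 10% FBS for 7 days at 37° C., 5% CO2. Viable cells measured by CellTiter-Glo luminescence; inhibition versus no-inhibitor and no-cell controls, IC50 fitted.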

NCI-H69 cells = assay: In vitro cell inhibition assay - NCI-H69 cell proliferation (CellTiter-Glo); assay type: cell-based
In short: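 Cells seeded at 1×10^3 per well and incubated overnight at 37° C., 5% CO2, then treated with 8-point 5-fold compound dilutions in RPMI-640 with 20% FBS for 7 days. Viable cells measured by CellTiter-Glo luminescence; IC50 fitted from inhibition relative to no-inhibitor and no-cell controls.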

HDAC8 = HDAC8 (Homo sapiens (Human), UniProt Q9BY41); assay: In vitro enzyme inhibition assay - HDAC (HDAC-Glo I/II), HDAC8; assay type: biochemical; details: read-out: HDAC IC50 (nM) HDAC 8
Chain of HDAC8 (Q9BY41 whole entry): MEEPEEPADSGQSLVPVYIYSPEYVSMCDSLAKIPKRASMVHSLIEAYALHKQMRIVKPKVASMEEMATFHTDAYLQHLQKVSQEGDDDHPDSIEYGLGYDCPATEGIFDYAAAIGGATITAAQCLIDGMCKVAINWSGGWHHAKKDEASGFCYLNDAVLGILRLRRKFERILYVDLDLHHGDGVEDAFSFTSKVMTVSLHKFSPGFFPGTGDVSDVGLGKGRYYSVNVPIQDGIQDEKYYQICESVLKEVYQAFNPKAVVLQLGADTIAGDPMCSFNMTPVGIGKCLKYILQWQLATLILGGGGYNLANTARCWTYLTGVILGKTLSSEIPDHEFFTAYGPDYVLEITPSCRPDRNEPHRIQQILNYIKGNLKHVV
In short: (§1)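 The compound, serially diluted 5-fold in DMSO across 8 concentrations starting from a 1 mM stock, was made up as 4× working solutions in HDAC buffer. It was then tested in the HDAC-Glo I/II system, and luminescence was recorded. IC50 values came from variable-slope four-parameter curves of inhibition rate.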

pan-HDAC = assay: In vitro enzyme inhibition assay - HDAC (HDAC-Glo I/II), pan-HDAC; assay type: biochemical
In short: as §1

[1] = Homo sapiens, DU-145, Du145 prostate cancer cell proliferation
[2] = Homo sapiens, NCI-H1417, H1417 small cell lung cancer cell proliferation
[3] = Homo sapiens, NCI-H69, H69 small cell lung cancer cell proliferation

IC50 (DU145 cells; [1]) [µM]	IC50 (LSD1) [µM]	IC50 (NCI-H526 cells; Homo sapiens, NCI-H526, 120 h) [µM]	IC50 (NCI-H1417 cells; [2]) [µM]	IC50 (NCI-H69 cells; [3]) [µM]	IC50 (HDAC8) [nM]	IC50 (pan-HDAC) [nM]	IC50 (DU145 cells; Du145 prostate cancer cell proliferation) [µM]	IC50 (NCI-H526 cells) [µM]	IC50 (NCI-H1417 cells; H1417 small cell lung cancer cell proliferation) [µM]	IC50 (NCI-H69 cells; H69 small cell lung cancer cell proliferation) [µM]	SMILES
0.026	0.00195	0.0103	0.00656	0.00852							COc1ccc(-c2cnc(N3CCC(NCc4ccc(/C=C/C(=O)NO)cc4)CC3)c(C#N)c2-c2ccc(C#N)c(F)c2)cc1O [Example 37, (E)-3-(4-(((1-(3-cyano-4-(4-cyano-3-fluorophenyl)-5-(3-hydroxy-4-methoxyphenyl)pyridin-2-yl)piperidin-4-yl)amino)methyl)phenyl)-N-hydroxyacrylamide hydrochloride]
0.011		0.00827	0.0117	0.00396							COc1ccc(-c2cnc(N3CCC(NCc4ccc(/C=C/C(=O)NO)cc4)CC3)c(F)c2-c2ccc(C#N)c(F)c2)cc1O [Example 76, (E)-3-(4-(((1-(4-(4-cyano-3-fluorophenyl)-3-fluoro-5-(3-hydroxy-4-methoxyphenyl)pyridin-2-yl)piperidin-4-yl)amino)methyl)phenyl)-N-hydroxyacrylamide formate]
0.0565		0.0293	0.014	0.0278	165	14.9					COc1ccc(-c2cnc(N3CCC(NCc4ccc(/C=C/C(=O)NO)cc4)CC3)cc2-c2ccc(C#N)c(F)c2)cc1O [Example 80, (E)-3-(4-(((1-(4-(4-cyano-3-fluorophenyl)-5-(3-hydroxy-4-methoxyphenyl)pyridin-2-yl)piperidin-4-yl)amino)methyl)phenyl)-N-hydroxyacrylamide formate]
0.116	0.00062	0.0684	0.004	0.0329	73.6	5.45					COc1ccc(-c2ccc(N3CCC(NCc4ccc(/C=C/C(=O)NO)cc4)CC3)c(C#N)c2-c2ccc(C#N)c(F)c2)cc1O [Example 84, (E)-3-(4-(((1-(3′,4″-dicyano-3″-fluoro-3-hydroxy-4-methoxy-[1,1′:2′,1″-terphenyl]-4′-yl)piperidin-4-yl)amino)methyl)phenyl)-N-hydroxyacrylamide]
0.0453		0.0346	0.042	0.00649							N#Cc1ccc(-c2c(-c3ccc(/C=C/C(=O)NO)c(O)c3)cnc(N3CCC(NCc4ccc(/C=C/C(=O)NO)cc4)CC3)c2C#N)cc1F [Example 90]
0.149	0.0399	0.108	0.0742	0.101	16.3	16.4					COc1cc(-c2cnc(N3CCC(NCc4cnc(/C=C/C(=O)NO)nc4)CC3)c(C#N)c2-c2ccc(C#N)c(F)c2)ccc1O [Example 96, (E)-3-(5-((1-(3-Cyano-4-(4-cyano-3-fluorophenyl)-5-(4-hydroxy-3-methoxyphenyl)pyridin-2-yl)piperidin-4-yl)amino)methyl) pyrimidin-2-yl)-N-hydroxyacrylamide formate]
	0.00074						0.112	0.0713	0.0042	0.0763	COc1ncc(-c2cnc(N3CCC(NCc4ccc(/C=C/C(=O)NO)cc4)CC3)c(C#N)c2-c2ccc(C#N)c(F)c2)cc1O [Example 123, (E)-3-(4-((1-(5-Cyano-4-(4-cyano-3-fluorophenyl)-5′-hydroxy-6′-methoxy-[3,3′-bipyridin]-6-yl)piperidin-4-yl)amino)methyl) phenyl)-N-hydroxyacrylamide trifluoroacetate]
0.364	0.0172		0.0291	0.0937	77.7	10.4					Cn1cnc2cc(-c3cnc(N4CCC(NCc5ccc(/C=C/C(=O)NO)cc5)CC4)c(C#N)c3-c3ccc(C#N)c(F)c3)ccc21 [Example 136, (E)-3-(4-(((1-(3-Cyano-4-(4-cyano-3-fluorophenyl)-5-(1-methyl-1H-benzo[d]imidazol-5-yl))pyridin-2-yl)piperidin-4-yl)amino)methyl) phenyl)-N-hydroxyacrylamide formate]
0.372	0.0214		0.0307	0.0916	401	61					COc1ccc(-c2cnc(N3CCC4(CC3)CN(Cc3ccc(/C=C/C(=O)NO)cc3)C4)c(C#N)c2-c2ccc(C#N)c(F)c2)cc1O [Example 138, (E)-3-(4-(((7-(3-Cyano-4-(4-cyano-3-fluorophenyl)-5-(3-hydroxy-4-methoxyphenyl)pyridin-2-yl)-2,7-diazaspiro[3.5]nonan-2-yl)methyl)phenyl)-N-hydroxyacrylamide formate]
0.00424	0.0018	0.00461	0.00759	0.00473							N#Cc1ccc(-c2c(-c3ccc4cn[nH]c4c3)cnc(N3CCC(NCc4ccc(/C=C/C(=O)NO)cc4)CC3)c2C#N)cc1F [Example 142, (E)-3-(4-(((1-(3-Cyano-4-(4-cyano-3-fluorophenyl)-5-(1H-indazol-6-yl)pyridin-2-yl)piperidin-4-yl)amino)methyl)phenyl)-N-hydroxyacrylamide formate]
0.0378	0.00335		0.0186	0.0393	74.9	5.23					N#Cc1ccc(-c2c(-c3ccc(OC(F)F)c(O)c3)cnc(N3CCC(NCc4cnc(/C=C/C(=O)NO)nc4)CC3)c2C#N)cc1F [Example 145, (E)-3-(5-(((1-(3-Cyano-4-(4-cyano-3-fluorophenyl)-5-(4-(difluoromethoxy)-3-hydroxyphenyl)pyridin-2-yl)piperidin-4-yl)amino)methyl)pyrimidin-2-yl)-N-hydroxyacrylamide formate]
0.0218		0.00622	0.00264	0.0131							Cc1ccc(-c2cnc(N3CCC(NCc4cnc(/C=C/C(=O)NO)nc4)CC3)c(C#N)c2-c2ccc(C#N)c(F)c2)cc1O [Example 148, (E)-3-(5-(((1-(3-Cyano-4-(4-cyano-3-fluorophenyl)-5-(3-hydroxy-4-methylphenyl)pyridin-2-yl)piperidin-4-yl)amino)methyl)pyrimidin-2-yl)-N-hydroxyacrylamide formate]
0.0339		0.0145	0.00208	0.0236							COc1ccc(-c2cnc(N3CCCC(NCc4ccc(/C=C/C(=O)NO)cc4)CC3)c(C#N)c2-c2ccc(C#N)c(F)c2)cc1O (stereo not drawn) [Example 149, (E)-3-(4-(((1-(3-Cyano-4-(4-cyano-3-fluorophenyl)-5-(3-hydroxy-4-methoxyphenyl)pyridin-2-yl)azepan-4-yl)amino)methyl)phenyl)-N-hydroxyacrylamide formate]
0.308	0.0027		0.0104	0.189	618	27.4					COc1ccc(-c2cnc(N3CCC(NCc4ncc(/C=C/C(=O)NO)s4)CC3)c(C#N)c2-c2ccc(C#N)c(F)c2)cc1O [Example 151, (E)-3-(2-(((1-(3-Cyano-4-(4-cyano-3-fluorophenyl)-5-(3-hydroxy-4-methoxyphenyl)pyridin-2-yl)piperidin-4-yl)amino)methyl)thiazol-5-yl)-N-hydroxyacrylamide hydrochloride]
0.223	0.00115		0.00491	0.208	131	2.57					COc1ccc(-c2cnc(N3CCC(NCc4cnc(CCC(=O)NO)nc4)CC3)c(C#N)c2-c2ccc(C#N)c(F)c2)cc1O [Example 152, 3-(5-((1-(3-Cyano-4-(4-cyano-3-fluorophenyl)-5-(3-hydroxy-4-methoxyphenyl)pyridin-2-yl)piperidin-4-yl)amino)methyl) pyrimidin-2-yl)-N-hydroxypropanamide hydrochloride]
2.03	0.963		0.00074	0.639	581	40.2					COc1ccc(-c2cnc(N3CCC(NC(=O)CCCCCCC(=O)NO)CC3)c(C#N)c2-c2ccc(C#N)c(F)c2)cc1O [Example 177, N^1-(1-(3-Cyano-4-(4-cyano-3-fluorophenyl)-5-(3-hydroxy-4-methoxyphenyl)pyridin-2-yl)piperidin-4-yl)-N^8-hydroxyoctanediamide formate]

Reference: US20250304549A1, “HYDROXYAMIDE DERIVATIVE AND USE THEREOF” (SICHUAN HUIYU PHARMACEUTICAL CO., LTD., priority 2022, published 2025)
